This is an account of results in ChEMBL document CHEMBL4476883, “Hydroxy formamide derivatives and their use” (2017).

The target of experiment [1] is T1, Bone morphogenetic protein 1 (Homo sapiens, UniProt P13497).
T1 sequence (P13497 whole entry): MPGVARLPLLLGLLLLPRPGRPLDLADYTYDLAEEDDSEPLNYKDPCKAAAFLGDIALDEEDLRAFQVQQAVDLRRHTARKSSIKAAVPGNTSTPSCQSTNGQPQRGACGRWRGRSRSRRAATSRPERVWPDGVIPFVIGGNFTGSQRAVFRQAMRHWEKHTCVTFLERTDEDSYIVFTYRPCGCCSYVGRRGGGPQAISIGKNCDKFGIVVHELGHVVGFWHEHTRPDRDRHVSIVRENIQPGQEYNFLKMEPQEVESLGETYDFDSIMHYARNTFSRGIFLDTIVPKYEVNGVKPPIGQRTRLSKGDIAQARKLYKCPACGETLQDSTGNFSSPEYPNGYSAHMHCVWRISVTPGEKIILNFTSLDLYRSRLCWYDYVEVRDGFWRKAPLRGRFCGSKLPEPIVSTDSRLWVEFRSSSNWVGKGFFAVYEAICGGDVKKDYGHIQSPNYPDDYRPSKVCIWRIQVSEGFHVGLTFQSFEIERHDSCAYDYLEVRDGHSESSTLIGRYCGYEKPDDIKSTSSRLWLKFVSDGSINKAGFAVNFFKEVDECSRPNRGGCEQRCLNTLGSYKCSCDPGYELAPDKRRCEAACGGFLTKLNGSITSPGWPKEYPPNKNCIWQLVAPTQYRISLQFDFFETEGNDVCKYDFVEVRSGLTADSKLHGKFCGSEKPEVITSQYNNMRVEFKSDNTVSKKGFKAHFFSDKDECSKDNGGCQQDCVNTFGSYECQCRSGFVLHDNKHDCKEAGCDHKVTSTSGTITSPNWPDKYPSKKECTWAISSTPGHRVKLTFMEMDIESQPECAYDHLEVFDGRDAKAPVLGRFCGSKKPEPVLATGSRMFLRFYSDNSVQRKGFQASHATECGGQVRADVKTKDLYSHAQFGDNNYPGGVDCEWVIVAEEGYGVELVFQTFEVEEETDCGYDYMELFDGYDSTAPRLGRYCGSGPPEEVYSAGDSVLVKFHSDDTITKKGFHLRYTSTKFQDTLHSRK
The experiment can be described thus: Inhibition of C-terminal FLAG-6x-His epitope tagged and N-terminal human RAGE signal sequence tagged human BMP1 (23 to 721 amino acids) expressed in CHO-E1A cells pre-incubated for 10 mins before promyostatin peptide substrate addition and measured after 60 mins using 0.5 nM BMP1 by FRET based assay. The format is cell-based.

In experiment [2] the target is T1, Bone morphogenetic protein 1. The experiment can be described thus: Inhibition of C-terminal FLAG-6x-His epitope tagged and N-terminal human RAGE signal sequence tagged human BMP1 (23 to 721 amino acids) expressed in CHO-E1A cells pre-incubated for 10 mins before promyostatin peptide substrate addition and measured after 30 mins using 50 nM BMP1 by FRET based assay. Type of experiment: cell-based.

The target of the next experiment is Tolloid-like protein 1 (Homo sapiens, UniProt O43897, I156V/N221S/V284A). Kind of experiment: Inhibition of recombinant human TLL1 I156V/N221S/V284A mutant expressed in CHOE1A cells pre-incubated for 10 mins before promyostatin peptide substrate addition and measured after 60 mins by FRET based assay. Type of experiment: cell-based.
The target in a further experiment is T2, Tolloid-like protein 2 (Homo sapiens, UniProt Q9Y6L7).
T2 sequence (Q9Y6L7 whole entry): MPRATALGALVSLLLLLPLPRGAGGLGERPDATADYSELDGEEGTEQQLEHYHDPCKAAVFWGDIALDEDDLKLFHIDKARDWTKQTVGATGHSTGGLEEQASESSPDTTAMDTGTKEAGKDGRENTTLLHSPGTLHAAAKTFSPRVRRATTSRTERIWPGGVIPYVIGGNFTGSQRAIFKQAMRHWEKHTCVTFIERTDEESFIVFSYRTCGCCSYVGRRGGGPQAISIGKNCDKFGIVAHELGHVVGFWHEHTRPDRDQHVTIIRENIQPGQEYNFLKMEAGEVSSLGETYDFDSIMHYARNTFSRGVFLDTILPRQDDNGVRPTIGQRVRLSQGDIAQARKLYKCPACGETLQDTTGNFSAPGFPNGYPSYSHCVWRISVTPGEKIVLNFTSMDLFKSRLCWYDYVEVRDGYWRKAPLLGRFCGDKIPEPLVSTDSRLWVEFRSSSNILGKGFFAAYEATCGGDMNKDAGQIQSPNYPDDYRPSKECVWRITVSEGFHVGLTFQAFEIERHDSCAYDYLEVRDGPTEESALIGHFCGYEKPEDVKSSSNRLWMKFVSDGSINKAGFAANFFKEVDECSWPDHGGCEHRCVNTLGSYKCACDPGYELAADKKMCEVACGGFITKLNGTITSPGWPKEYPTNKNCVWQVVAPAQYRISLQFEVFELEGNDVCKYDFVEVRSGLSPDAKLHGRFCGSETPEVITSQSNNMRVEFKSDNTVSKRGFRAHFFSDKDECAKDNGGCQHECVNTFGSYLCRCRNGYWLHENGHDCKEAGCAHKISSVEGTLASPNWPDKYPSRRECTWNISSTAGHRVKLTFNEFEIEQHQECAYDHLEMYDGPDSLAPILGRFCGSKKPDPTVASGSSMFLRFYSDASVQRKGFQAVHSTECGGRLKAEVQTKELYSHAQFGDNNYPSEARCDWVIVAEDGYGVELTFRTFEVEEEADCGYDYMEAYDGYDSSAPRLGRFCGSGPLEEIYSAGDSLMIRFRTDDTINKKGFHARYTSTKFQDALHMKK
The experiment can be described thus: Inhibition of C-terminal Avi-6x-His epitope tagged and N-terminal human RAGE signal sequence tagged recombinant human TLL2 (26 to 1015 amino acids) expressed in CHOE1A cells incubated for 60 mins with promyostatin peptide substrate by FRET based assay. Type of experiment: cell-based.

The nature of experiment [3]: Reduction in PICP levels in human cardiac fibroblasts incubated for 24 to 48 hrs by ELISA. Type of experiment: functional. A general note: In an ELISA, binding on a coated surface is turned into a signal by an enzyme label.

Tolloid-like protein 1, sequence (O43897 148-1013 I156V/N221S/V284A limits assumed): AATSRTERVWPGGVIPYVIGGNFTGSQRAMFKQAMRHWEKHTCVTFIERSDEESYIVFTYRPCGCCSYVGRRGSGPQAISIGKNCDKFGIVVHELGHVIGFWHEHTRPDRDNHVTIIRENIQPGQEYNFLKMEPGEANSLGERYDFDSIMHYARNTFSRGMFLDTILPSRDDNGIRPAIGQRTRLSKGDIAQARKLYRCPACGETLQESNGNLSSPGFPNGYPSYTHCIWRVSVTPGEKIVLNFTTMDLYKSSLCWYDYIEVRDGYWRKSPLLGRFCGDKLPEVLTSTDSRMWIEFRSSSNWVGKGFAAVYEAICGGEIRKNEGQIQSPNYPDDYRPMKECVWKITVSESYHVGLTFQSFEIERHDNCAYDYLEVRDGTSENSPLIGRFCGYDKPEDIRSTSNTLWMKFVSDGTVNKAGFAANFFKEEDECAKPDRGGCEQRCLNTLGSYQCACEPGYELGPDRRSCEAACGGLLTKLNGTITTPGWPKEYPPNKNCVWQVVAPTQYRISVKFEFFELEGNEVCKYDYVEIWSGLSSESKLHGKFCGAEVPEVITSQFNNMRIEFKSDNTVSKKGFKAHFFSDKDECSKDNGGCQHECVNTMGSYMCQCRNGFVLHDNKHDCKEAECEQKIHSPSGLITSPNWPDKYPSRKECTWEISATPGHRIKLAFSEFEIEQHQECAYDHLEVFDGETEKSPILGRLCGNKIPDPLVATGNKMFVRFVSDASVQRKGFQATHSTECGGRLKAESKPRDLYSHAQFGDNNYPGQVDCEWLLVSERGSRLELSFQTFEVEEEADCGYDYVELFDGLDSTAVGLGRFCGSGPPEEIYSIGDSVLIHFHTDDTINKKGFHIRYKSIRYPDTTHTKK

What is called IC50 is the concentration needed to halve the response being measured. Take `CCCCC[C@@H](C(=O)NCNC(=O)c1cccc(-c2ccc(CC(=O)O)c(OCC)c2)n1)[C@@H](CC)N(O)C=O`: the IC50 in experiment [1] was under 126 nM; in experiment [2] it was under 251 nM; on Tolloid-like protein 1, under 398 nM; on Tolloid-like protein 2, under 631 nM; in experiment [3], under 20000 nM.
`CCCCC[C@@H](C(=O)NCNC(=O)c1cccc(-c2ccc(C(=O)O)c(OCC)c2)n1)[C@@H](CC)N(O)C=O`: the half-inhibitory concentration (IC50) in experiment [1] is under 126 nM; in experiment [2], under 251 nM; at Tolloid-like protein 1 it was under 398 nM; on Tolloid-like protein 2 it was under 631 nM; in experiment [3], under 20000 nM.
As for `CCCCC[C@H](CN(O)C=O)C(=O)NCNC(=O)c1cccc(-c2ccc(F)c(OC)c2)n1`, the IC50 in experiment [1] was under 126 nM; in experiment [2], under 251 nM; on Tolloid-like protein 1, under 398 nM; at Tolloid-like protein 2, under 631 nM; in experiment [3], under 20000 nM.
In the case of `O=CN(O)C[C@@H](CCc1ccccc1)C(=O)NCNC(=O)c1cccc(-c2ccccc2)n1`, the IC50 was under 126 nM in experiment [1]; under 251 nM in experiment [2]; under 398 nM at Tolloid-like protein 1; under 631 nM on Tolloid-like protein 2; under 20000 nM in experiment [3].
Consider `CCCCC[C@H](CN(O)C=O)C(=O)NCNC(=O)c1cc(C(F)(F)F)cc(-c2ccccc2)n1`, for which the half-maximal inhibitory concentration (IC50) in experiment [1] was under 126 nM; in experiment [2] it was under 251 nM; on Tolloid-like protein 1, under 398 nM; at Tolloid-like protein 2 it was under 631 nM; in experiment [3], under 20000 nM.
The like results for `CCCCC[C@H](CN(O)C=O)C(=O)NCNC(=O)c1cccc(-c2cccnc2)n1` were, in that order, under 126 nM, under 251 nM, under 398 nM, under 631 nM and under 20000 nM.
With `CCCCC[C@H](CN(O)C=O)C(=O)NCNC(=O)c1cccc(-c2ccccc2)n1`, the IC50 in experiment [1] was under 126 nM; in experiment [2], under 251 nM; at Tolloid-like protein 1, under 398 nM; on Tolloid-like protein 2 it was under 631 nM; in experiment [3], under 20000 nM.
In the case of `CCCCC[C@H](CN(O)C=O)C(=O)NCNC(=O)c1cccc(-c2cccc(OC)n2)n1`, the IC50 is under 126 nM in experiment [1]; under 251 nM in experiment [2]; under 398 nM at Tolloid-like protein 1; under 631 nM on Tolloid-like protein 2; under 20000 nM in experiment [3].
In the case of `CCCCC[C@@H](C(=O)NCNC(=O)c1cccc(-c2cc(OCC)cc(C(=O)N[C@@H](CC(=O)O)C(=O)O)c2)n1)[C@@H](CC)N(O)C=O`, the IC50 in experiment [1] was under 126 nM; in experiment [2] it was under 251 nM; at Tolloid-like protein 1 it was under 398 nM; on Tolloid-like protein 2, under 631 nM; in experiment [3], under 20000 nM.
Turning to `CCCCC[C@H](CN(O)C=O)C(=O)NCNC(=O)c1cccc(-c2cccc(OC)c2)n1`, the IC50 in experiment [1] was under 126 nM; in experiment [2] it was under 251 nM; at Tolloid-like protein 1 it was under 398 nM; on Tolloid-like protein 2, under 631 nM; in experiment [3], under 20000 nM.
On to `CCCCC[C@H](CN(O)C=O)C(=O)NCNC(=O)c1cccc(-c2ccc(C(F)(F)F)cc2)n1`, for which the IC50 in experiment [1] was under 126 nM; in experiment [2], under 251 nM; at Tolloid-like protein 1, under 398 nM; on Tolloid-like protein 2, under 631 nM; in experiment [3], under 20000 nM.
In the case of `CCCCC[C@@H](C(=O)NCNC(=O)c1cccc(-c2ccc(C(C)(C)C(=O)O)cc2)n1)[C@@H](CC)N(O)C=O`, the IC50 was under 126 nM in experiment [1]; under 251 nM in experiment [2]; under 398 nM at Tolloid-like protein 1; under 631 nM on Tolloid-like protein 2; under 20000 nM in experiment [3].
As to `CCCCC[C@H](CN(O)C=O)C(=O)NCNC(=O)c1cccc(-c2cccc(OC)c2F)n1`, the IC50 in experiment [1] was under 126 nM; in experiment [2], under 251 nM; on Tolloid-like protein 1 it was under 398 nM; on Tolloid-like protein 2 it was under 631 nM; in experiment [3] it was under 20000 nM.
The like results for `CCCCC[C@@H](C(=O)NCNC(=O)c1cccc(-c2cc(C(=O)OCC)cc(S(N)(=O)=O)c2)n1)[C@@H](CC)N(O)C=O` were, in that order, under 126 nM, under 251 nM, under 398 nM, under 631 nM and under 20000 nM.
The like results for `CCCCC[C@H](CN(O)C=O)C(=O)NCNC(=O)c1ccnc(-c2ccccc2)n1` were, in that order, under 126 nM, under 251 nM, under 398 nM, under 631 nM and under 20000 nM.
`CCCCC[C@H](CN(O)C=O)C(=O)NCNC(=O)c1cccc(-c2ccc(F)cc2)n1`: the concentration for half-maximal inhibition (IC50) in experiment [1] is under 126 nM; in experiment [2], under 251 nM; on Tolloid-like protein 1, under 398 nM; on Tolloid-like protein 2, under 631 nM; in experiment [3], under 20000 nM.
As for `CCCCC[C@@H](C(=O)NCNC(=O)c1cccc(-c2ccc(CC(=O)O)cc2)n1)[C@@H](CC)N(O)C=O`, the half-maximal inhibitory concentration (IC50) in experiment [1] was under 126 nM; in experiment [2], under 251 nM; at Tolloid-like protein 1, under 398 nM; on Tolloid-like protein 2, under 631 nM; in experiment [3], under 20000 nM.
For `CCCCC[C@@H](C(=O)NCNC(=O)c1cccc(-c2cccc(S)c2)c1)[C@@H](CC)N(O)C=O`, the IC50 in experiment [1] is under 126 nM; in experiment [2] it was under 251 nM; on Tolloid-like protein 1, under 398 nM; at Tolloid-like protein 2, under 631 nM; in experiment [3], under 20000 nM.
For the compound `CCCCC[C@H](CN(O)C=O)C(=O)NCNC(=O)c1cccc(-c2ccc(OC(F)(F)F)cc2)n1`, the half-maximal inhibitory concentration (IC50) was under 126 nM in experiment [1]; under 251 nM in experiment [2]; under 398 nM on Tolloid-like protein 1; under 631 nM at Tolloid-like protein 2; under 20000 nM in experiment [3].
For the compound `CCCCC[C@H](CN(O)C=O)C(=O)NCNC(=O)c1ccc(F)c(-c2ccccc2)n1`, the half-inhibitory concentration (IC50) was under 126 nM in experiment [1]; under 251 nM in experiment [2]; under 398 nM at Tolloid-like protein 1; under 631 nM at Tolloid-like protein 2; under 20000 nM in experiment [3].
Regarding `CCCCC[C@H](CN(O)C=O)C(=O)NCNC(=O)c1cncc(-c2ccccc2)n1`, the IC50 in experiment [1] was under 126 nM; in experiment [2], under 251 nM; on Tolloid-like protein 1, under 398 nM; on Tolloid-like protein 2, under 631 nM; in experiment [3], under 20000 nM.
As for `CCCCC[C@H](CN(O)C=O)C(=O)NCNC(=O)c1cccc(-c2ccc(F)cc2F)n1`, the IC50 in experiment [1] was under 126 nM; in experiment [2], under 251 nM; on Tolloid-like protein 1 it was under 398 nM; on Tolloid-like protein 2, under 631 nM; in experiment [3], under 20000 nM.
